Like-named read-outs stand apart in the source and are kept apart here.
Key:
5637 cells [1] = experiment: MTT cytotoxicity assay, 5637 bladder cancer cells; format: cell-based, human
Description: (§1) For the hypoxia experiments, cells were cultured at 1% O2 (5% CO2/94% N2; 37 °C) using a hypoxia station (Whitley H35 hypoxystation; Don Whitley, Bingley, UK). All media used in these experiments were incubated under hypoxic conditions before being added to the cells.
(§2) Then, DMSO was added to dissolve the formazan crystals.

SCaBER cells [2] = experiment: MTT cytotoxicity assay, SCaBER bladder cancer cells; format: cell-based, human; conditions: normoxia
MRC-5 cells [3] = experiment: MTT cytotoxicity assay, MRC-5 normal lung fibroblasts
Description: (§3) Human urinary grade II carcinoma cell line (5637) and human urinary squamous cell carcinoma (SCaBER) were purchased from ATCC (Manassas, VA, USA). The MRC-5 cell line (normal human lung fibroblasts) was purchased from the European Collection of Authenticated Cell Cultures (ECACC) distributed by Sigma-Aldrich. The 5637 cells were grown in RPMI, SCaBER cells were cultured in EMEM, and MRC-5 in DMEM. All media were supplemented with 10% (v/v) FBS, 2 mM L-glutamine, 100 U/mL penicillin, and 10 mg/mL streptomycin in a humidified atmosphere of 5% CO2 at 37 °C.
(§4) 5637 and SCaBER cells were seeded at 15 × 10^3 cells/well, while MRC-5 was at a density of 20 × 10^3 cells/well and incubated overnight. In the case of the hypoxia experiments, cells were transferred to a hypoxia chamber and incubated for 24 h. […] The cytotoxic activity of tested compounds was measured after 24 h and 48 h using the MTT assay. After incubation lasting 24 h and 48 h, the cells were washed twice with PBS, and 170 µL of MTT (final concentration of 0.59 mg/mL in cell culture medium) was added to each well. Cells were incubated for 1.5 h under standard cell culture conditions. Then, DMSO was added to dissolve the formazan crystals. The absorbance was measured at a wavelength of 570 nm with a plate reader (Biotek Instruments, Elx-800, Winooski, VT, USA). Cell viability was calculated as a percentage of the control. All experiments were repeated at least two times (two independent experiments performed in hexaplicate). The IC50 values were determined using GraphPad 8.0 software (GraphPad Software, Inc., La Jolla, CA, USA).

SCaBER cells [4] = experiment: MTT cytotoxicity assay, SCaBER bladder cancer cells; format: cell-based, human; conditions: hypoxia (1% oxygen)
Description: as §1, §2

[5] = set-up: method as in ref 41 (Wang et al.); conditions: ref 41 (Wang et al.), cited from earlier work
T24 cell line = system: T24 cell line; set-up: method as in ref 53 (Park et al.); conditions: T24 cells, 12.5 µM; ref 53 (Park et al.); cited from earlier work
[6] = system: human peripheral blood mononuclear cell (PBMC); set-up: method as in ref 38 (Deters et al.); conditions: ref 38 (Deters et al.); cited from earlier work
MRC-5 cells [7] = conditions: 10 µM
Description: as §3, §4

5637 cells [8] = experiment: Proteome Profiler Human Cell Stress Array; format: cell-based; conditions: 5637, hypoxic conditions, 4 µM, 18 h, compared to control cells
Description: The 5637 cells were seeded in a Petri dish (Ø 35 mm) at a density of 0.4 × 10^6 cells/dish and incubated overnight. Cells were treated with compound 5 at a concentration of 4 µM (hypoxia) and 8 µM (normoxia) for 18 h. […] After incubation, cells were lysed in a lysis buffer containing pepstatin A, leupeptin, and aprotinin (each at a concentration of 10 µg/mL). Total protein was determined using a Pierce BCA protein assay Kit and stored at −80 °C until future use. A total of 300 µg of protein was then incubated with a human Proteome Profiler Human Cell Stress Array (Bio-Techne, Minneapolis, MN, USA) according to the manufacturer’s instructions. The membranes were visualized using the I-Bright Imaging System (Thermofisher Scientific, Waltham, MA, USA). The spot densitometric analysis was performed using Image Studio Lite (version 5.2) software (LI-COR Biosciences, Lincoln, NE, USA).

[9] = MTT cytotoxicity assay, MRC-5 normal lung fibroblasts; conditions: human, MRC-5 normal lung fibroblasts
Description: as §3, §4

5637 cells [10] = experiment: Cell cycle distribution, propidium iodide flow cytometry; format: cell-based, human; conditions: for G2/M cell population: 5637, 6 µM, 24 h
Description: The 5637 cells (0.4 × 10^6 cells/well) were seeded in 6-well plates and incubated overnight under standard cell culture conditions or in a hypoxia workstation. Then, the tested compound was added at a concentration of 4 µM, 5 µM, and 6 µM (for hypoxic conditions), and 6 µM, 8 µM, and 10 µM (for normoxic conditions), and incubated for 24 h. […] After incubation, cells were washed twice with PBS, trypsinized, and washed again with PBS. Cells were fixed with 70% ethanol at 4 °C. After fixation, the cells were washed twice with PBS and treated with RNAse (100 µg/mL) and PI (50 µg/mL) for 30 min at 37 °C in the dark. The samples were analyzed using BD FACSLyric™ (Becton Dickinson, Franklin Lakes, NJ, USA). Finally, cell cycle distribution was analyzed using flow cytometry. The percentages of cells in the G1, S, and G2/M phases were calculated using FlowJo software version 10.8.1 (Becton Dickinson, Ashland, OR, USA).

[11] = 5637, hypoxia (1% oxygen), 24 h incubation, MTT, read-out: IC50
[12] = 5637, hypoxia (1% oxygen), 48 h incubation, MTT, read-out: IC50
[13] = 5637, normoxia, 24 h incubation, MTT, read-out: IC50
[14] = 5637, normoxia, 48 h incubation, MTT, read-out: IC50
[15] = MRC-5, normoxia, 24 h incubation, MTT
[16] = MRC-5, normoxia, 48 h incubation, MTT
[17] = Homo sapiens, 24 h, 5637, hypoxia (1% oxygen), 24 h incubation, MTT, read-out: IC50
[18] = Homo sapiens, 24 h, 5637, normoxia, 24 h incubation, MTT, read-out: IC50
[19] = Homo sapiens, 48 h, 5637, hypoxia (1% oxygen), 48 h incubation, MTT, read-out: IC50
[20] = Homo sapiens, 48 h, 5637, normoxia, 48 h incubation, MTT, read-out: IC50
[21] = Homo sapiens, 24 h, 24 h incubation
[22] = Homo sapiens, 48 h, 48 h incubation
[23] = 5637, 24 h, hypoxic conditions, vs control

| Molecule | IC50 (5637 cells [1]; [11]) | IC50 (5637 cells [1]; [12]) | IC50 (5637 cells [1]; [13]) | IC50 (5637 cells [1]; [14]) | IC50 (SCaBER cells [2]; 24 h incubation) | IC50 (SCaBER cells [2]; 48 h incubation) | IC50 (MRC-5 cells [3]; [15]) | IC50 (MRC-5 cells [3]; [16]) | IC50 (SCaBER cells [4]; 24 h incubation) | IC50 (SCaBER cells [4]; 48 h incubation) | other results |
| --- | --- | --- | --- | --- | --- | --- | --- | --- | --- | --- | --- |
| (1E,3Z,6E)-1,7-bis(4-methoxy-3-{2-[2-(2-methoxyethoxy)ethoxy]ethoxy}phenyl)-5-oxohepta-1,3,6-trien-3-yl difluoroborinate [Compound 6] | 2.37 ± 0.19 µM | 2.66 ± 0.07 µM | 2.6 ± 0.99 µM | 2.63 ± 0.77 µM | 4.11 ± 1.4 µM | 4.35 ± 1.97 µM | > 10 µM | 9.34 ± 0.76 µM | 5.85 ± 1.98 µM | 7.28 ± 1.81 µM | – |
| (1E,4Z,6E)-5-hydroxy-1,7-bis (3-methoxy-4-hydroxyphenyl)-hepta-1,4,6-trien-3-one [Curcumin (11), reference compound] | 12.1 ± 0.16 µM | 13.3 ± 0.54 µM | 12.7 ± 3.03 µM | 12.9 ± 2.35 µM | 13.1 ± 0.68 µM | 12.6 ± 0.62 µM | 70.4 ± 12.5 µM | 45.3 ± 3.18 µM | 11.6 ± 0.83 µM | 11.3 ± 0.19 µM | curcumin decomposed ([5]; cell culture medium in the presence of FCS, within 1 h): less than 20%; curcumin decomposed ([5]; cell culture medium in the presence of FCS, within 8 h): < 50%; curcumin decomposed ([5]; serum-free medium, within 30 min): about 90%; cell population in G2/M (T24 cell line): 64%; IC50 [6]: 2.8 µM |
| (1E,3Z,6E)-1,7-bis(3-methoxy-4-{2-[2-(2-methoxyethoxy)ethoxy]ethoxy}phenyl)-5-oxohepta-1,3,6-trien-3-yl difluoroborinate [Compound 4] | 2.58 ± 0.11 µM | 2.96 ± 0.23 µM | 3.31 ± 0.34 µM | 3.27 ± 0.45 µM | 4.18 ± 1.3 µM | 4.57 ± 2.07 µM | > 10 µM | > 10 µM | 2.42 ± 0.23 µM | 2.86 ± 0.62 µM | cell viability (MRC-5 cells [7]): 66% |
| (1E,3Z,6E)-1,7-bis(3-methoxy-4-hydroxyphenyl)-5-oxohepta-1,3,6-trien-3-yl difluoroborinate [Compound 10] | 1.96 ± 0.47 µM | 2.12 ± 0.33 µM | 2.25 ± 0.08 µM | 2.17 ± 0.24 µM | 2.59 ± 0.16 µM | 2.71 ± 0.34 µM | > 10 µM | 7.84 ± 0.15 µM | 2.35 ± 0.22 µM | 2.6 ± 0.03 µM | – |
| COCCOCCOCCOc1ccc(/C=C/C(=O)/C=C(O)/C=C/c2ccc(OCCOCCOCCOC)c(OC)c2)cc1OC [Compound 5, (1E,4Z,6E)-5-hydroxy-1,7-bis(3-methoxy-4-{2-[2-(2-methoxyethoxy)ethoxy]ethoxy}phenyl)-hepta-1,4,6-trien-3-one] | – | – | – | – | – | – | – | – | – | – | IC50 (5637 cells [1]; [17]): 6.43 ± 0.26 µM; IC50 (5637 cells [1]; [18]): 8.4 ± 0.21 µM; IC50 (5637 cells [1]; Homo sapiens, 24 h, 5637, panel A (normoxia, 5-10 µM), 24 h, read-out: IC50 (narrow concentration range)): 7.89 ± 0.47 µM; IC50 (5637 cells [1]; Homo sapiens, 24 h, 5637, panel B (hypoxia 1% oxygen, 3-8 µM), 24 h, read-out: IC50 (narrow concentration range)): 5.29 ± 0.02 µM; IC50 (5637 cells [1]; [19]): 5.02 ± 1.06 µM; IC50 (5637 cells [1]; [20]): 7.91 ± 0.46 µM; IC50 (5637 cells [1]; Homo sapiens, 48 h, 5637, panel A (normoxia, 5-10 µM), 48 h, read-out: IC50 (narrow concentration range)): 7.82 ± 1 µM; IC50 (5637 cells [1]; Homo sapiens, 48 h, 5637, panel B (hypoxia 1% oxygen, 3-8 µM), 48 h, read-out: IC50 (narrow concentration range)): 5.29 ± 0.16 µM; IC50 (SCaBER cells [2]; [21]): 8.53 ± 0.16 µM; IC50 (SCaBER cells [2]; [22]): 7.97 ± 0.4 µM; expression of HIF-1α, HIF-2α, ADAMTS-1, phospho-JNK, p21, and phospho-HSP27 (5637 cells [8]): increased; IC50 (MRC-5 cells [3]; Homo sapiens, MRC5, 24 h): > 10 µM; IC50 (MRC-5 cells [3]; Homo sapiens, MRC5, 48 h): > 10 µM; viability at 10 µM [9]: ~100%; G2/M cell population (5637 cells [10]; hypoxia): 38%; G2/M cell population (5637 cells [10]; normoxia): 24%; number of cells in the G0/G1 phase (5637 cells [10]; [23]): significantly decreased; number of cells in the S phase (5637 cells [10]; [23]): slightly increased; IC50 (SCaBER cells [4]; [21]): 7.27 ± 0.2 µM; IC50 (SCaBER cells [4]; [22]): 7.58 ± 0.91 µM |
| (1E,3Z,6E)-1,7-bis(4-methoxy-3-hydroxyphenyl)-5-oxohepta-1,3,6-trien-3-yl difluoroborinate [Compound 12] | 2.32 ± 0.29 µM | 2.64 ± 0.54 µM | 2.48 ± 0.55 µM | 2.4 ± 0.45 µM | 2.28 ± 0.13 µM | 2.21 ± 0.17 µM | 9.63 ± 2.61 µM | 5.8 ± 0.77 µM | 3.26 ± 1.05 µM | 4.25 ± 1.94 µM | – |
| COCCOCCOCCOc1cc(/C=C/C(=O)/C=C(O)/C=C/c2ccc(OC)c(OCCOCCOCCOC)c2)ccc1OC [Compound 7, (1E,4Z,6E)-5-hydroxy-1,7-bis(4-methoxy-3-{2-[2-(2-methoxyethoxy)ethoxy]ethoxy}phenyl)-hepta-1,4,6-trien-3-one] | – | – | – | – | – | – | – | – | – | – | viability at 10 µM (5637 cells [1]; Homo sapiens, 5637, 10 µM, 24 h incubation, preliminary screen, read-out: cell viability): > 60% |
| COc1ccc(/C=C/C(=O)/C=C(O)/C=C/c2ccc(OC)c(O)c2)cc1O [Isocurcumin (13), (1E,4Z,6E)-5-hydroxy-1,7-bis(4-methoxy-3-hydroxyphenyl)-hepta-1,4,6-trien-3-one] | – | – | – | – | – | – | – | – | – | – | IC50 (5637 cells [1]; [17]): 13.1 ± 2.89 µM; IC50 (5637 cells [1]; [18]): 10.8 ± 3.46 µM; IC50 (5637 cells [1]; [19]): 10.1 ± 3.12 µM; IC50 (5637 cells [1]; [20]): 6.71 ± 1.7 µM; IC50 (SCaBER cells [2]; [21]): 14.7 ± 0.88 µM; IC50 (SCaBER cells [2]; [22]): 14.3 ± 0.41 µM; IC50 (MRC-5 cells [3]; Homo sapiens, MRC5, 24 h): > 20 µM; IC50 (MRC-5 cells [3]; Homo sapiens, MRC5, 48 h): > 20 µM; IC50 (SCaBER cells [4]; [21]): 14.2 ± 0.23 µM; IC50 (SCaBER cells [4]; [22]): 11.94 ± 0.09 µM; IC50 [6]: 2.8 µM |

From paper PMC9867315, “Enhanced Cytotoxic Activity of PEGylated Curcumin Derivatives: Synthesis, Structure–Activity Evaluation, and Biological Activity” (International Journal of Molecular Sciences, 2023)
